Data from PubChem BioAssay AID1259407 (Chemical Carcinogenesis Research Information System (CCRIS), 2018).
The source made the active and inactive calls. No rule for the calls is given here.

Test system: CCRIS mutagenicity, Ames/micronucleus/aberration tests
Test: CCRIS mutagenicity studies
[1] = Test System: AMES SALMONELLA TYPHIMURIUM, Strain/Indicator: TA98, Metabolic Activation: NONE, Method: PREINCUBATION
[2] = Test System: AMES SALMONELLA TYPHIMURIUM, Strain/Indicator: TA100, Metabolic Activation: NONE, Method: PREINCUBATION
[3] = Test System: AMES SALMONELLA TYPHIMURIUM, Strain/Indicator: TA98, Metabolic Activation: NONE, Method: STANDARD PLATE
[4] = Test System: AMES SALMONELLA TYPHIMURIUM, Strain/Indicator: TA100, Metabolic Activation: NONE, Method: STANDARD PLATE

With `O=C1CCCO1` the mutagenic call (End Point: IN VITRO CHROMOSOMAL ABERRATIONS, Test System: CHO CELLS, Metabolic Activation: NONE) was “inactive; negative”, the mutagenic call (End Point: IN VITRO CHROMOSOMAL ABERRATIONS, Test System: CHO CELLS, Metabolic Activation: RAT, LIVER, S-9, AROCLOR 1254) was “active; positive” and the mutagenic call (Test System: AMES SALMONELLA TYPHIMURIUM, Strain/Indicator: TA98, Metabolic Activation: HAMSTER, LIVER, S-9, AROCLOR 1254 (10%), Method: PREINCUBATION) was “inactive; negative”. For the same compound, the mutagenic call [1] was “inactive; negative”, the mutagenic call (Test System: AMES SALMONELLA TYPHIMURIUM, Strain/Indicator: TA98, Metabolic Activation: RAT LIVER S-9, PHENOBARBITAL AND BETA-NAPHTHOFLAVONE, Method: PREINCUBATION) was “inactive; negative” and the mutagenic call (Test System: AMES SALMONELLA TYPHIMURIUM, Strain/Indicator: TA98, Metabolic Activation: RAT, LIVER, S-9, AROCLOR 1254 (10%), Method: PREINCUBATION) was “inactive; negative”. The mutagenic call (Test System: AMES SALMONELLA TYPHIMURIUM, Strain/Indicator: TA98, Metabolic Activation: RAT, LIVER, S-9, AROCLOR 1254, Method: PREINCUBATION) was “inactive; negative”, the mutagenic call (Test System: AMES SALMONELLA TYPHIMURIUM, Strain/Indicator: TA100, Metabolic Activation: HAMSTER, LIVER, S-9, AROCLOR 1254 (10%), Method: PREINCUBATION) was “inactive; negative” and the mutagenic call [2] was “inactive; negative”. The mutagenic call (Test System: AMES SALMONELLA TYPHIMURIUM, Strain/Indicator: TA100, Metabolic Activation: RAT LIVER S-9, PHENOBARBITAL AND BETA-NAPHTHOFLAVONE, Method: PREINCUBATION) was “inactive; negative”, the mutagenic call (Test System: AMES SALMONELLA TYPHIMURIUM, Strain/Indicator: TA100, Metabolic Activation: RAT, LIVER, S-9, AROCLOR 1254 (10%), Method: PREINCUBATION) was “inactive; negative” and the mutagenic call (Test System: AMES SALMONELLA TYPHIMURIUM, Strain/Indicator: TA100, Metabolic Activation: RAT, LIVER, S-9, AROCLOR 1254, Method: PREINCUBATION) was “inactive; negative”. For the same compound, the mutagenic call (Test System: AMES SALMONELLA TYPHIMURIUM, Strain/Indicator: TA102, Metabolic Activation: NONE, Method: PREINCUBATION) was “inactive; negative”, the mutagenic call (Test System: AMES SALMONELLA TYPHIMURIUM, Strain/Indicator: TA102, Metabolic Activation: RAT LIVER S-9, PHENOBARBITAL AND BETA-NAPHTHOFLAVONE, Method: PREINCUBATION) was “inactive; negative” and the mutagenic call (Test System: AMES SALMONELLA TYPHIMURIUM, Strain/Indicator: TA102, Metabolic Activation: RAT, LIVER, S-9, AROCLOR 1254, Method: PREINCUBATION) was “inactive; negative”. For the same compound, the mutagenic call (Test System: AMES SALMONELLA TYPHIMURIUM, Strain/Indicator: TA104, Metabolic Activation: NONE, Method: PREINCUBATION) was “inactive; negative”, the mutagenic call (Test System: AMES SALMONELLA TYPHIMURIUM, Strain/Indicator: TA104, Metabolic Activation: RAT LIVER S-9, PHENOBARBITAL AND BETA-NAPHTHOFLAVONE, Method: PREINCUBATION) was “inactive; negative” and the mutagenic call (Test System: AMES SALMONELLA TYPHIMURIUM, Strain/Indicator: TA1535, Metabolic Activation: HAMSTER, LIVER, S-9, AROCLOR 1254 (10%), Method: PREINCUBATION) was “inactive; negative”. For the same compound, the mutagenic call (Test System: AMES SALMONELLA TYPHIMURIUM, Strain/Indicator: TA1535, Metabolic Activation: NONE, Method: PREINCUBATION) was “inactive; negative”, the mutagenic call (Test System: AMES SALMONELLA TYPHIMURIUM, Strain/Indicator: TA1535, Metabolic Activation: RAT LIVER S-9, PHENOBARBITAL AND BETA-NAPHTHOFLAVONE, Method: PREINCUBATION) was “inactive; negative” and the mutagenic call (Test System: AMES SALMONELLA TYPHIMURIUM, Strain/Indicator: TA1535, Metabolic Activation: RAT, LIVER, S-9, AROCLOR 1254 (10%), Method: PREINCUBATION) was “inactive; negative”. For the same compound, the mutagenic call (Test System: AMES SALMONELLA TYPHIMURIUM, Strain/Indicator: TA1537, Metabolic Activation: HAMSTER, LIVER, S-9, AROCLOR 1254 (10%), Method: PREINCUBATION) was “inactive; negative”, the mutagenic call (Test System: AMES SALMONELLA TYPHIMURIUM, Strain/Indicator: TA1537, Metabolic Activation: NONE, Method: PREINCUBATION) was “inactive; negative” and the mutagenic call (Test System: AMES SALMONELLA TYPHIMURIUM, Strain/Indicator: TA1537, Metabolic Activation: RAT LIVER S-9, PHENOBARBITAL AND BETA-NAPHTHOFLAVONE, Method: PREINCUBATION) was “inactive; negative”. The mutagenic call (Test System: AMES SALMONELLA TYPHIMURIUM, Strain/Indicator: TA1537, Metabolic Activation: RAT, LIVER, S-9, AROCLOR 1254 (10%), Method: PREINCUBATION) was “inactive; negative”, the mutagenic call (Test System: E.COLI, Strain/Indicator: WP2UVRA, Metabolic Activation: NONE, Method: PREINCUBATION) was “inactive; negative” and the mutagenic call (Test System: E.COLI, Strain/Indicator: WP2UVRA, Metabolic Activation: RAT LIVER S-9, PHENOBARBITAL AND BETA-NAPHTHOFLAVONE, Method: PREINCUBATION) was “inactive; negative”. The mutagenic call (Test System: E.COLI, Strain/Indicator: WP2UVRA\PKM101, Metabolic Activation: NONE, Method: PREINCUBATION) was “inactive; negative” and the mutagenic call (Test System: E.COLI, Strain/Indicator: WP2UVRA\PKM101, Metabolic Activation: RAT LIVER S-9, PHENOBARBITAL AND BETA-NAPHTHOFLAVONE, Method: PREINCUBATION) was “inactive; negative”.

For `N[C@@H](CSc1ccc([N+](=O)[O-])cc1[N+](=O)[O-])C(=O)O`, the mutagenic call (Test System: AMES SALMONELLA TYPHIMURIUM, Strain/Indicator: TA100(NR), Metabolic Activation: NONE, Method: PREINCUBATION) was “active; positive”, the mutagenic call (Test System: AMES SALMONELLA TYPHIMURIUM, Strain/Indicator: TA100/GSH-, Metabolic Activation: NONE, Method: PREINCUBATION) was “active; positive” and the mutagenic call [2] was “active; positive”.

`CC(=O)N[C@@H](CS)C(=O)O` was tested, and the mutagenic call (Test System: AMES SALMONELLA TYPHIMURIUM, Strain/Indicator: TA92, Metabolic Activation: NONE, Method: STANDARD PLATE) was “inactive; negative”, the mutagenic call (Test System: AMES SALMONELLA TYPHIMURIUM, Strain/Indicator: TA92, Metabolic Activation: RAT, KIDNEY, S-9, Method: STANDARD PLATE) was “active; positive” and the mutagenic call (Test System: AMES SALMONELLA TYPHIMURIUM, Strain/Indicator: TA97, Metabolic Activation: NONE, Method: STANDARD PLATE) was “inactive; negative”. The mutagenic call (Test System: AMES SALMONELLA TYPHIMURIUM, Strain/Indicator: TA97, Metabolic Activation: RAT, KIDNEY, S-9, Method: STANDARD PLATE) was “active; positive”, the mutagenic call (Test System: AMES SALMONELLA TYPHIMURIUM, Strain/Indicator: TA102, Metabolic Activation: NONE, Method: STANDARD PLATE) was “inactive; negative” and the mutagenic call (Test System: AMES SALMONELLA TYPHIMURIUM, Strain/Indicator: TA104, Metabolic Activation: NONE, Method: STANDARD PLATE) was “inactive; negative”. For the same compound, the mutagenic call (Test System: AMES SALMONELLA TYPHIMURIUM, Strain/Indicator: TA104, Metabolic Activation: RAT, KIDNEY, S-9, Method: STANDARD PLATE) was “active; positive” and the mutagenic call (Test System: CHINESE HAMSTER V-79, Strain/Indicator: V-79/6-THIOGUANINE, Metabolic Activation: NONE, Method: STANDARD PLATE) was “inactive; negative”.

For `CCCN(CCC)CCc1cccc2[nH]c3c(C)ccc(C)c3c12`, the mutagenic call [3] was “inactive; negative”, the mutagenic call (Test System: AMES SALMONELLA TYPHIMURIUM, Strain/Indicator: TA98, Metabolic Activation: RAT, LIVER, S-9, PHENOBARBITAL AND 5,6-BENZOFLAVONE, Method: STANDARD PLATE) was “active; positive” and the mutagenic call [4] was “inactive; negative”. The mutagenic call (Test System: AMES SALMONELLA TYPHIMURIUM, Strain/Indicator: TA100, Metabolic Activation: RAT, LIVER, S-9, PHENOBARBITAL AND 5,6-BENZOFLAVONE, Method: STANDARD PLATE) was “active; positive”, the mutagenic call (Test System: UDS HUMAN HEPATOCYTES, Strain/Indicator: THY INCORP, Metabolic Activation: NONE, Method: IN VITRO) was “active; positive” and the mutagenic call (Test System: UDS RAT HEPATOCYTES, Strain/Indicator: THY INCORP, Metabolic Activation: NONE, Method: IN VIVO-IN VITRO) was “active; positive”.

`O=S(=O)(O)c1ccc(N=Nc2c(O)ccc3ccccc23)cc1` was tested, and the mutagenic call (Test System: AMES SALMONELLA TYPHIMURIUM, Strain/Indicator: TA98, Metabolic Activation: HAMSTER, LIVER, S-9, Method: PREINCUBATION (PRIVAL METHOD)) was “inactive; negative”, the mutagenic call [1] was “inactive; negative” and the mutagenic call [3] was “inactive; negative”. For the same compound, the mutagenic call (Test System: AMES SALMONELLA TYPHIMURIUM, Strain/Indicator: TA98, Metabolic Activation: RAT LIVER S-9, AROCLOR 1254, Method: STANDARD PLATE) was “inactive; negative”, the mutagenic call (Test System: AMES SALMONELLA TYPHIMURIUM, Strain/Indicator: TA98, Metabolic Activation: RAT, LIVER, S-9, PHENOBARBITAL, Method: PREINCUBATION) was “inactive; negative” and the mutagenic call [2] was “inactive; negative”. The mutagenic call [4] was “inactive; negative”, the mutagenic call (Test System: AMES SALMONELLA TYPHIMURIUM, Strain/Indicator: TA100, Metabolic Activation: RAT LIVER S-9, AROCLOR 1254, Method: STANDARD PLATE) was “inactive; negative” and the mutagenic call (Test System: AMES SALMONELLA TYPHIMURIUM, Strain/Indicator: TA100, Metabolic Activation: RAT, LIVER, S-9, PHENOBARBITAL, Method: PREINCUBATION) was “inactive; negative”.
